Measurements published in patent US20070116654A1, “Cosmetics” (SHISEIDO CO., LTD., priority 2001, published 2007).

System: back of a marmot
Experiment: Continuous skin irritation test of retinol
Type: in vivo
Details: polar oil blend ratio 8 mass %, 0.2 mass % retinol
Description: “Continuous Skin Irritation Test”
0.05 ml of a sample solution containing a lipophilic drug was applied on a 2×2 cm area of the back of a marmot (first application).
24 hours later, the second application was done.
Again, 24 hours later, the third application was done.
Before the second application, before the third application, and 24 hours after the third application, skin reactions such as erythema and edema was observed by naked eye. Evaluation was conducted based on the following criteria, and the average of the three scores was used as the skin reaction score.
Evaluation Criteria of the Skin Reaction

CCCCCCCC(=O)OCC(COC(=O)CCCCCCC)(COC(=O)CCCCCCC)COC(=O)CCCCCCC [pentaerythrityl tetraoctanoate]
skin irritation suppression effect (retinol), FIG. 9: superior skin irritation suppression effect
